Measured values: article PMC2844127 (Journal of medicinal chemistry, 2010)

What was measured:
[1] = target: dopamine rD3 receptor (Rattus norvegicus, UniProt P19020); conditions: ratio of Ki D2L to Ki D3
[2] = target: dopamine hD3 receptor (Homo sapiens, UniProt P35462); experiment: Stimulation of [35S]GTPγS binding, hD3 receptors expressed in CHO cells; format: biochemical; conditions: read-out: %Emax, CHO-D3
[3] = system: 6-OHDA lesioned rats; experiment: Rotational experiment with 6-OHDA lesioned rats; format: in vivo, rat

dopamine rD3 receptor, sequence (P19020 whole entry): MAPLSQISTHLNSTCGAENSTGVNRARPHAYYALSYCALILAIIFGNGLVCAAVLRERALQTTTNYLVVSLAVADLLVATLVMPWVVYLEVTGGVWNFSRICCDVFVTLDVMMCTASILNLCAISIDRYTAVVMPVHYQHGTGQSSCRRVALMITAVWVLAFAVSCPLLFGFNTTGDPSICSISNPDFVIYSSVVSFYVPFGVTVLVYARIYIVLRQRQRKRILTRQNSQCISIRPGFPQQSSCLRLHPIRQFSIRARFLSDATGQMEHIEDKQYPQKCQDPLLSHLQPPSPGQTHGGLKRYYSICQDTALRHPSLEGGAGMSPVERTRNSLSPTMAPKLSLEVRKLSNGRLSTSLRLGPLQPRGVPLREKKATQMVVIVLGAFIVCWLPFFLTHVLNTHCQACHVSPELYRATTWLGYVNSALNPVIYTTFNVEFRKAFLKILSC
dopamine hD3 receptor, sequence (P35462 whole entry): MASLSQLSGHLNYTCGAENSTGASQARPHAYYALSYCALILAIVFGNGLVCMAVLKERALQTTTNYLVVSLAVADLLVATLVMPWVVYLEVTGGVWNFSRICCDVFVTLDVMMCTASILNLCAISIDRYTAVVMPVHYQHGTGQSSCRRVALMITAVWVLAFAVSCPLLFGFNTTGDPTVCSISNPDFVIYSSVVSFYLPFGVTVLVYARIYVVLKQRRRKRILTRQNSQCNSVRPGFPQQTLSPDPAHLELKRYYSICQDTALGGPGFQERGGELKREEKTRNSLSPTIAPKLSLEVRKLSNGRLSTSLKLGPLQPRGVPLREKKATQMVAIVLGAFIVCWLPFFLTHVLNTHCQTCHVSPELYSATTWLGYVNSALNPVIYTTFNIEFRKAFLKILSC

In the case of `CCCN(CCN1CCN(Cc2ccc(O)c3ncccc23)CC1)C1CCc2ccc(O)cc2C1` (centres unmarked) [Compound 12a, 5-((4-(2-((7-hydroxy-1,2,3,4-tetrahydronaphthalen-2-yl)(propyl)amino)ethyl)piperazin-1-yl)methyl) quinolin-8-ol], the D2L/D3 [1] is reported as 15.4.
`CCCN(CCN1CCN(Cc2ccc(O)c3ncccc23)CC1)C1CCc2c(O)cccc2C1` (centres unmarked) [Compound 12b, 5-((4-(2-((5-hydroxy-1,2,3,4-tetrahydronaphthalen-2-yl)(propyl)amino)ethyl)piperazin-1-yl)methyl)quinolin-8-ol] gave a D2L/D3 [1] of 11.2.
For `CCCN(CCC)CCc1cccc2c1CC(=O)N2` [Ropinirole], the Emax [2] was 66.6 ± 8.1% and the rotational activity ([3]; 5 µMol/kg) was “much less rotations with shorter duration of action”.
With `CN1CCc2cccc3c2[C@H]1Cc1ccc(O)c(O)c1-3` [apomorphine] the “average rotation (contralateral)” value ([3]; 0.05 mg/kg, 21 days post lesion, recorded for 30 min, four rats) was > 250.
